ChEMBL document CHEMBL1641588, “3-[Benzimidazo- and 3-[benzothiadiazoleimidazo-(1,2-c)quinazolin-5-yl]-2H-chromene-2-ones as potent antimicrobial agents” (2011)
Converted amounts (≈) assume the structure as drawn.

Legend:
[1] = system: Candida albicans; experiment: Antifungal activity against Candida albicans at 1000 ug/mL after 72 hrs by agar diffusion assay; format: functional; conditions: read-out: IZ
[2] = system: Salmonella typhimurium; experiment: Antibacterial activity against Salmonella Typhimurium at 1000 ug/mL after 72 hrs by agar diffusion assay; format: functional, Salmonella enterica subsp. enterica serovar Typhimurium; conditions: Salmonella enterica, read-out: IZ
[3] = system: Salmonella typhimurium; experiment: Antibacterial activity against Salmonella Typhimurium by liquid dilution method; format: functional, Salmonella enterica subsp. enterica serovar Typhimurium; conditions: Salmonella enterica
[4] = system: Streptococcus pyogenes; experiment: Antibacterial activity against Streptococcus pyogenes by liquid dilution method; format: functional
[5] = system: Staphylococcus aureus; experiment: Antibacterial activity against Staphylococcus aureus at 1000 ug/mL after 72 hrs by agar diffusion assay; format: functional; conditions: read-out: IZ
[6] = system: Aspergillus flavus; experiment: Antifungal activity against Aspergillus flavus at 1000 ug/mL after 72 hrs by agar diffusion assay; format: functional; conditions: read-out: IZ
[7] = system: Aspergillus niger; experiment: Antifungal activity against Aspergillus niger by liquid dilution method; format: functional
[8] = system: Klebsiella pneumoniae; experiment: Antibacterial activity against Klebsiella pneumoniae at 1000 ug/mL after 72 hrs by agar diffusion assay; format: functional; conditions: read-out: IZ
[9] = system: Bacillus subtilis; experiment: Antibacterial activity against Bacillus subtilis by liquid dilution method; format: functional
[10] = system: Escherichia coli; experiment: Antibacterial activity against Escherichia coli by liquid dilution method; format: functional
[11] = system: Aspergillus niger; experiment: Antifungal activity against Aspergillus niger at 1000 ug/mL after 72 hrs by agar diffusion assay; format: functional; conditions: read-out: IZ
[12] = system: Candida albicans; experiment: Antifungal activity against Candida albicans by liquid dilution method; format: functional
[13] = system: Klebsiella pneumoniae; experiment: Antibacterial activity against Klebsiella pneumoniae by liquid dilution method; format: functional
[14] = system: Streptococcus pyogenes; experiment: Antibacterial activity against Streptococcus pyogenes at 1000 ug/mL after 72 hrs by agar diffusion assay; format: functional; conditions: read-out: IZ
[15] = system: Aspergillus flavus; experiment: Antifungal activity against Aspergillus flavus by liquid dilution method; format: functional
[16] = system: Staphylococcus aureus; experiment: Antibacterial activity against Staphylococcus aureus by liquid dilution method; format: functional
[17] = system: Bacillus subtilis; experiment: Antibacterial activity against Bacillus subtilis at 1000 ug/mL after 72 hrs by agar diffusion assay; format: functional; conditions: read-out: IZ
[18] = system: Escherichia coli; experiment: Antibacterial activity against Escherichia coli at 1000 ug/mL after 72 hrs by agar diffusion assay; format: functional; conditions: read-out: IZ

| Structure (SMILES) | zone of inhibition at 1000 µg/mL [1] [mm] | zone of inhibition at 1000 µg/mL [2] [mm] | MIC [3] [µg/mL] | MIC [4] [µg/mL] | zone of inhibition at 1000 µg/mL [5] [mm] | zone of inhibition at 1000 µg/mL [6] [mm] | MIC [7] [µg/mL] | zone of inhibition at 1000 µg/mL [8] [mm] | MIC [9] [µg/mL] | MIC [10] [µg/mL] | zone of inhibition at 1000 µg/mL [11] [mm] | MIC [12] [µg/mL] | MIC [13] [µg/mL] | zone of inhibition at 1000 µg/mL [14] [mm] | MIC [15] [µg/mL] | MIC [16] [µg/mL] | zone of inhibition at 1000 µg/mL [17] [mm] | zone of inhibition at 1000 µg/mL [18] [mm] |
| --- | --- | --- | --- | --- | --- | --- | --- | --- | --- | --- | --- | --- | --- | --- | --- | --- | --- | --- |
| O=c1oc2ccccc2cc1-c1nc2ccccc2c2nc3ccccc3n12 | 27 | 32 | 25 (≈ 68.8 µM) | 30 (≈ 82.6 µM) | 36 | 32 | 25 (≈ 68.8 µM) | 34 | 45 (≈ 124 µM) | 25 (≈ 68.8 µM) | 34 | 35 (≈ 96.3 µM) | 30 (≈ 82.6 µM) | 23 | 40 (≈ 110 µM) | 35 (≈ 96.3 µM) | 31 | 38 |
| O=c1oc2c(Br)cccc2cc1-c1nc2ccccc2c2nc3ccccc3n12 | 32 | 29 | 35 (≈ 79.1 µM) | 35 (≈ 79.1 µM) | 39 | 45 | 40 (≈ 90.4 µM) | 31 | 40 (≈ 90.4 µM) | 45 (≈ 102 µM) | 37 | 40 (≈ 90.4 µM) | 25 (≈ 56.5 µM) | 27 | 10 (≈ 22.6 µM) | 40 (≈ 90.4 µM) | 28 | 28 |
| O=c1oc2c(Cl)cc(Cl)cc2cc1-c1nc2ccccc2c2nc3ccccc3n12 | 39 | 48 | 2.5 (≈ 5.78 µM) | 10 (≈ 23.1 µM) | 50 | 38 | 35 (≈ 81 µM) | 47 | 10 (≈ 23.1 µM) | 10 (≈ 23.1 µM) | 38 | 50 (≈ 116 µM) | 5 (≈ 11.6 µM) | 38 | 35 (≈ 81 µM) | 2.5 (≈ 5.78 µM) | 42 | 44 |
| O=c1oc2c(Br)cc(Br)cc2cc1-c1nc2ccccc2c2nc3ccccc3n12 | 41 | 36 | 30 (≈ 57.6 µM) | 20 (≈ 38.4 µM) | 39 | 46 | 20 (≈ 38.4 µM) | 38 | 50 (≈ 95.9 µM) | 15 (≈ 28.8 µM) | 48 | 15 (≈ 28.8 µM) | 35 (≈ 67.2 µM) | 36 | 15 (≈ 28.8 µM) | 40 (≈ 76.8 µM) | 34 | 41 |
| Cc1cccc2cc(-c3nc4ccccc4c4nc5ccccc5n34)c(=O)oc12 | 32 | 35 | 20 (≈ 53 µM) | 45 (≈ 119 µM) | 32 | 35 | 50 (≈ 132 µM) | 31 | 45 (≈ 119 µM) | 40 (≈ 106 µM) | 27 | 45 (≈ 119 µM) | 30 (≈ 79.5 µM) | 24 | 35 (≈ 92.7 µM) | 30 (≈ 79.5 µM) | 30 | 32 |
| O=c1oc2ccc([N+](=O)[O-])cc2cc1-c1nc2ccccc2c2nc3ccccc3n12 | 27 | 32 | 25 (≈ 61.2 µM) | 40 (≈ 97.9 µM) | 24 | 30 | 45 (≈ 110 µM) | 29 | 10 (≈ 24.5 µM) | 30 (≈ 73.5 µM) | 29 | 50 (≈ 122 µM) | 40 (≈ 97.9 µM) | 28 | 45 (≈ 110 µM) | 35 (≈ 85.7 µM) | 27 | 35 |
| O=c1oc2ccccc2cc1-c1nc2ccccc2c2nc3c4nsnc4ccc3n12 | 26 | 24 | 30 (≈ 71.2 µM) | 45 (≈ 107 µM) | 31 | 35 | 40 (≈ 94.9 µM) | 27 | 50 (≈ 119 µM) | 45 (≈ 107 µM) | 22 | 45 (≈ 107 µM) | 35 (≈ 83 µM) | 22 | 35 (≈ 83 µM) | 50 (≈ 119 µM) | 32 | 26 |
| O=c1oc2c(Br)cccc2cc1-c1nc2ccccc2c2nc3c4nsnc4ccc3n12 | 29 | 29 | 35 (≈ 70 µM) | 40 (≈ 79.9 µM) | 35 | 33 | 35 (≈ 70 µM) | 30 | 40 (≈ 79.9 µM) | 35 (≈ 70 µM) | 31 | 35 (≈ 70 µM) | 25 (≈ 50 µM) | 23 | 50 (≈ 99.9 µM) | 30 (≈ 60 µM) | 29 | 31 |
| O=c1oc2c(Cl)cc(Cl)cc2cc1-c1nc2ccccc2c2nc3c4nsnc4ccc3n12 | 26 | 31 | 25 (≈ 51 µM) | 35 (≈ 71.4 µM) | 39 | 29 | 40 (≈ 81.6 µM) | 34 | 45 (≈ 91.8 µM) | 30 (≈ 61.2 µM) | 33 | 45 (≈ 91.8 µM) | 35 (≈ 71.4 µM) | 20 | 50 (≈ 102 µM) | 35 (≈ 71.4 µM) | 34 | 32 |
| CC1(C)S[C@@H]2[C@H](NC(=O)[C@H](N)c3ccccc3)C(=O)N2[C@H]1C(=O)O [AMPICILLIN] | – | 45 | 10 (≈ 28.6 µM) | 25 (≈ 71.5 µM) | 48 | – | – | 45 | 20 (≈ 57.2 µM) | 15 (≈ 42.9 µM) | – | – | 10 (≈ 28.6 µM) | 35 | – | 10 (≈ 28.6 µM) | 39 | 40 |
| CC(=O)N1CCN(c2ccc(OCC3COC(Cn4ccnc4)(c4ccc(Cl)cc4Cl)O3)cc2)CC1 (stereo not given) [KETOCONAZOLE] | 40 | – | – | – | – | 43 | 15 (≈ 28.2 µM) | – | – | – | 45 | 25 (≈ 47 µM) | – | – | 15 (≈ 28.2 µM) | – | – | – |
